Data reported in the CheMixHub viscosity set.

Assay: xn = mol fraction of the nth substance listed

CCCOC(C)=O + ClC(Cl)(Cl)Cl
101.33 kPa
Conditions | viscosity [mPa·s]
303.15 K, x2 = 0.0422 | 0.526
303.15 K, x2 = 0.1298 | 0.547
303.15 K, x2 = 0.2541 | 0.576
303.15 K, x2 = 0.3334 | 0.598
303.15 K, x2 = 0.488 | 0.639
303.15 K, x2 = 0.5271 | 0.657
303.15 K, x2 = 0.6005 | 0.676
303.15 K, x2 = 0.7049 | 0.716
303.15 K, x2 = 0.8748 | 0.784
303.15 K, x2 = 0.9403 | 0.815
313.15 K, x2 = 0.2073 | 0.494
313.15 K, x2 = 0.4055 | 0.541
313.15 K, x2 = 0.5078 | 0.568
313.15 K, x2 = 0.601 | 0.593
313.15 K, x2 = 0.802 | 0.661

CCN(CC)CC + ClC(Cl)Cl
298.15 K, 101 kPa
Conditions | viscosity [mPa·s]
x2 = 0.0983 | 0.389
x2 = 0.1979 | 0.442
x2 = 0.2978 | 0.503
x2 = 0.3989 | 0.567
x2 = 0.4988 | 0.618
x2 = 0.5829 | 0.64
x2 = 0.6859 | 0.631
x2 = 0.8008 | 0.604
x2 = 0.901 | 0.574

ClC(Cl)(Cl)Cl + ClC(Cl)Cl
Conditions | viscosity [mPa·s]
293.15 K, 101.33 kPa, x1 = 0.2087 | 0.6645
293.15 K, 101.33 kPa, x1 = 0.517 | 0.7319
293.15 K, 101.33 kPa, x1 = 0.9083 | 0.9238
298.15 K, 101 kPa, x1 = 0.1566 | 0.569
298.15 K, 101 kPa, x1 = 0.5099 | 0.659
298.15 K, 101 kPa, x1 = 0.7699 | 0.761
298.15 K, 101 kPa, x2 = 0.2298 | 0.761
298.15 K, 101 kPa, x2 = 0.51 | 0.659
298.15 K, 101 kPa, x2 = 0.8437 | 0.569
298.15 K, 101.33 kPa, x1 = 0.2087 | 0.6296
298.15 K, 101.33 kPa, x1 = 0.517 | 0.6888
298.15 K, 101.33 kPa, x1 = 0.9083 | 0.8561
298.16 K, 101 kPa, x2 = 0.151 | 0.816
298.16 K, 101 kPa, x2 = 0.328 | 0.732
298.16 K, 101 kPa, x2 = 0.61 | 0.633
298.16 K, 101 kPa, x2 = 0.803 | 0.583
303.15 K, 101.3 kPa, x1 = 0.502 | 0.6248
303.15 K, 101.33 kPa, x1 = 0.2087 | 0.5964
303.15 K, 101.33 kPa, x1 = 0.517 | 0.6543
303.15 K, 101.33 kPa, x1 = 0.9083 | 0.8041
308.15 K, 101.33 kPa, x1 = 0.2087 | 0.5644
308.15 K, 101.33 kPa, x1 = 0.517 | 0.6241
308.15 K, 101.33 kPa, x1 = 0.9083 | 0.7523
313.15 K, 101.33 kPa, x1 = 0.2087 | 0.5501
313.15 K, 101.33 kPa, x1 = 0.517 | 0.5928
313.15 K, 101.33 kPa, x1 = 0.9083 | 0.7143
318.15 K, 101.33 kPa, x1 = 0.2087 | 0.523
318.15 K, 101.33 kPa, x1 = 0.517 | 0.5657
318.15 K, 101.33 kPa, x1 = 0.9083 | 0.6686
323.15 K, 101.33 kPa, x1 = 0.2087 | 0.5032
323.15 K, 101.33 kPa, x1 = 0.517 | 0.5444
323.15 K, 101.33 kPa, x1 = 0.9083 | 0.6335

ClC(Cl)(Cl)Cl + ClCCCl
303.15 K, 101.3 kPa
Conditions | viscosity [mPa·s]
x2 = 0.1081 | 0.7755
x2 = 0.1414 | 0.7609
x2 = 0.1994 | 0.739
x2 = 0.3171 | 0.7081
x2 = 0.3777 | 0.6975
x2 = 0.5001 | 0.6832
x2 = 0.5454 | 0.6817
x2 = 0.5978 | 0.6814
x2 = 0.6503 | 0.6809
x2 = 0.6758 | 0.6824
x2 = 0.7592 | 0.6879
x2 = 0.8193 | 0.6942
x2 = 0.8711 | 0.7016
x2 = 0.8965 | 0.7055
x2 = 0.934 | 0.7126

ClC(Cl)(Cl)Cl + Clc1ccccc1
298.15 K, 101 kPa
Conditions | viscosity [mPa·s]
x2 = 0.2 | 0.844
x2 = 0.4 | 0.81
x2 = 0.6 | 0.787
x2 = 0.8 | 0.769

FCCl + FC(F)(Cl)C(F)(F)Cl
Conditions | viscosity [mPa·s]
312.21 K, 101.13 kPa, x1 = 0.754 | 0.2322

CC1CCCCC1O (stereo not given) + NC1CCCCC1
viscosity [mPa·s], 100 kPa
Conditions | x1 = 0.04642 | x1 = 0.09319 | x1 = 0.1878 | x1 = 0.2839 | x1 = 0.3814 | x1 = 0.4805 | x1 = 0.5811 | x1 = 0.6834 | x1 = 0.7872 | x1 = 0.8928
293.15 K | 2.657 | 2.965 | 3.533 | 4.632 | 5.819 | 7.685 | 11.76 | 15.63 | 20 | 27.62
298.15 K | 2.328 | 2.582 | 3.048 | 3.894 | 4.852 | 6.53 | 9.343 | 12.39 | 15.17 | 19.95
303.15 K | 2.057 | 2.27 | 2.656 | 3.351 | 4.096 | 5.343 | 7.677 | 9.722 | 11.73 | 14.98
308.15 K | 1.833 | 2.008 | 2.335 | 3.042 | 3.498 | 4.468 | 6.235 | 7.748 | 9.687 | 11.45
313.15 K | 1.645 | 1.791 | 2.068 | 2.65 | 3.018 | 3.782 | 5.118 | 6.295 | 7.365 | 8.876

ClC(Cl)(Cl)Cl + Nc1ccccc1
298.15 K, 101.32 kPa
Conditions | viscosity [mPa·s]
x2 = 0.1018 | 0.991
x2 = 0.2047 | 1.111
x2 = 0.325 | 1.297
x2 = 0.3901 | 1.418
x2 = 0.4954 | 1.655
x2 = 0.5976 | 1.914
x2 = 0.7051 | 2.263
x2 = 0.8076 | 2.672
x2 = 0.9265 | 3.3

CCCCCCCCCCCCc1ccccc1S(=O)(=O)[O-].[Na+] + O
viscosity [mPa·s], 101 kPa
Conditions | x1 = 5e-06 | x1 = 1e-05 | x1 = 2e-05 | x1 = 2.2e-05 | x1 = 2.7e-05 | x1 = 3.2e-05 | x1 = 3.8e-05 | x1 = 4.3e-05 | x1 = 4.9e-05 | x1 = 5.4e-05
293.15 K | 0.9811 | 0.9821 | 0.9837 | 0.9859 | 0.9881 | 0.9903 | 0.9919 | 0.9944 | 0.9974 | 1.001
298.15 K | 0.8497 | 0.8508 | 0.8522 | 0.8544 | 0.8558 | 0.857 | 0.8582 | 0.86 | 0.8614 | 0.864
303.15 K | 0.7683 | 0.7687 | 0.77 | 0.7718 | 0.7744 | 0.7763 | 0.7812 | 0.7864 | 0.796 | 0.7988
308.15 K | 0.6924 | 0.6932 | 0.6943 | 0.6958 | 0.6979 | 0.7013 | 0.7051 | 0.7074 | 0.7106 | 0.7123
313.15 K | 0.6075 | 0.609 | 0.6102 | 0.6121 | 0.6138 | 0.6167 | 0.6203 | 0.623 | 0.6242 | 0.6262
